For the experiment, the target named is Gamma-aminobutyric acid receptor subunit gamma-2 / Gamma-aminobutyric acid receptor subunit alpha-5 (Homo sapiens, UniProt P18507+P31644). The experiment is described as follows: Electrophysiology. As for the experimental part:
Electrophysiological experiments were performed on days 3 to 5 after the micro-injection of mRNA. During the experiment the oocytes were constantly superfused by a solution containing (in mM) NaCl 90, KCl 1, HEPES 5, MgCl2 1, CaCl2 1 (pH 7.4). Oocytes were impaled by two glass microelectrodes (resistance: 0.4 MΩ) which were filled with a solution containing KCl 1M+K-acetate 1.5 M and voltage-clamped to −80 mV. The recordings were performed at room temperature using the Roboocyte two-electrode voltage clamp system (Multichannelsystem). After an initial equilibration period of 1.5 min GABA was added for 1.5 min at a concentration evoking approximately 20% of a maximal current response (EC20). After another rest interval of 2.5 min GABA was again added evoking a response of similar amplitude and shape. 0.5 min after the onset of this second GABA application the test compound, at a concentration corresponding to approximatively 30 fold its Ki, was added while GABA was still present. Current traces were recorded at a digitization rate of 10 Hz during and shortly before and after the GABA application.

Gamma-aminobutyric acid receptor subunit gamma-2 / Gamma-aminobutyric acid receptor subunit alpha-5, sequence (P18507 40-475 limits assumed): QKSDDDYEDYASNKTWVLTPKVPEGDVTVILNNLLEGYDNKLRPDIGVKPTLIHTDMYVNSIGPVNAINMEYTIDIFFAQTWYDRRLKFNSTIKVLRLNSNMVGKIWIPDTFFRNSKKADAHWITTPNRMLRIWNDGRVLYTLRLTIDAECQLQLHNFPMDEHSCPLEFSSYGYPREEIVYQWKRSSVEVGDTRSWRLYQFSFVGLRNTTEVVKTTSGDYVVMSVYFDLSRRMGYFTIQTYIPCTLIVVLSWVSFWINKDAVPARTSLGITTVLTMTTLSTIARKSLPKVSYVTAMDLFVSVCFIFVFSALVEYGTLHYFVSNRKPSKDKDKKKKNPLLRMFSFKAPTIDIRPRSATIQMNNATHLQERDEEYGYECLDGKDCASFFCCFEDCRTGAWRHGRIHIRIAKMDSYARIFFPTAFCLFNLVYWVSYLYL
Gamma-aminobutyric acid receptor subunit gamma-2 / Gamma-aminobutyric acid receptor subunit alpha-5, sequence (P31644 32-462 limits assumed): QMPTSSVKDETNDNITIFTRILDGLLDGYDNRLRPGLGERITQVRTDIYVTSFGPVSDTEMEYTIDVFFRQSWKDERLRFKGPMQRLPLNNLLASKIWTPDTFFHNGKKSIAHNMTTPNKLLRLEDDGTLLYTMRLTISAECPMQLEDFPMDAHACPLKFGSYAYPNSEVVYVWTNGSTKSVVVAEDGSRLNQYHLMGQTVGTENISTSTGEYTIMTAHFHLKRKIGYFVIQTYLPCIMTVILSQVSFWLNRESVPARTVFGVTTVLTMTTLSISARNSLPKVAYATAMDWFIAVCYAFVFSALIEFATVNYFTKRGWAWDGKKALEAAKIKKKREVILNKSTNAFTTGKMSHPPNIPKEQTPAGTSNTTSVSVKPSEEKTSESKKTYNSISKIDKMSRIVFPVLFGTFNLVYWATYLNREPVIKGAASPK

As a reminder, the Ki is a measure of affinity in units of concentration, obtained from inhibition or displacement. `Cc1onc(-c2ccc(Cl)nc2)c1COc1ccc(C(=O)N[C@H]2CCOC2)nn1` [US11091471, Example 160] came in with an inhibition constant (Ki) of 9.3 nM.

The values above are taken from BindingDB's records for patent US11091471 (Hoffmann-La Roche, 2021).
